Assay results as given in PubChem BioAssay (NCI).
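48-hour exposure; five concentrations; linearly interpolated endpoints. TGI: concentration producing complete growth inhibition.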

Columns and labels:
Test in all cases: DTP human tumour cell line panel, 48 h
UACC-257 melanoma = system: UACC-257 melanoma
OVCAR-4 ovarian = system: OVCAR-4 ovarian
MCF7 breast = system: MCF7 breast
SK-OV-3 ovarian = system: SK-OV-3 ovarian
ACHN renal = system: ACHN renal
SW-620 colon = system: SW-620 colon
HS 578T breast = system: HS 578T breast
SF-268 CNS = system: SF-268 CNS
CCRF-CEM leukemia = system: CCRF-CEM leukemia
UO-31 renal = system: UO-31 renal
M14 melanoma = system: M14 melanoma
SK-MEL-2 melanoma = system: SK-MEL-2 melanoma
HCT-15 colon = system: HCT-15 colon
IGROV1 ovarian = system: IGROV1 ovarian
OVCAR-3 ovarian = system: OVCAR-3 ovarian
KM12 colon = system: KM12 colon
BT-549 breast = system: BT-549 breast
SNB-19 CNS = system: SNB-19 CNS
DU-145 prostate = system: DU-145 prostate
SNB-75 CNS = system: SNB-75 CNS
U251 CNS = system: U251 CNS
MDA-MB-231 breast = system: MDA-MB-231 breast
SF-295 CNS = system: SF-295 CNS
NCI/ADR-RES ovarian = system: NCI/ADR-RES ovarian
RXF 393 renal = system: RXF 393 renal
MDA-MB-435 = system: MDA-MB-435
HCC-2998 colon = system: HCC-2998 colon
RPMI-8226 leukemia = system: RPMI-8226 leukemia
SR leukemia = system: SR leukemia
A498 renal = system: A498 renal
MALME-3M melanoma = system: MALME-3M melanoma
EKVX NSCLC = system: EKVX NSCLC
SN12C renal = system: SN12C renal
HOP-62 NSCLC = system: HOP-62 NSCLC
SK-MEL-5 melanoma = system: SK-MEL-5 melanoma
NCI-H226 lung = system: NCI-H226 lung
K-562 leukemia = system: K-562 leukemia
NCI-H23 lung = system: NCI-H23 lung
CAKI-1 renal = system: CAKI-1 renal
OVCAR-8 ovarian = system: OVCAR-8 ovarian
MOLT-4 leukemia = system: MOLT-4 leukemia
COLO 205 colon = system: COLO 205 colon
MDA-N = system: MDA-N
A549 NSCLC = system: A549 NSCLC
786-0 renal = system: 786-0 renal
HT29 colon = system: HT29 colon
PC-3 prostate = system: PC-3 prostate
UACC-62 melanoma = system: UACC-62 melanoma
HCT-116 colon = system: HCT-116 colon
OVCAR-5 ovarian = system: OVCAR-5 ovarian
NCI-H460 lung = system: NCI-H460 lung
T-47D breast = system: T-47D breast
NCI-H522 lung = system: NCI-H522 lung
HL-60(TB) leukemia = system: HL-60(TB) leukemia
LOX IMVI melanoma = system: LOX IMVI melanoma
TK-10 renal = system: TK-10 renal
SF-539 CNS = system: SF-539 CNS
SK-MEL-28 melanoma = system: SK-MEL-28 melanoma

## CCOC(=O)c1nnsc1NC(=O)NCCCCCCn1c(=O)n(CCCCCCNC(=O)Nc2snnc2C(=O)OCC)c(=O)n(CCCCCCNC(=O)Nc2snnc2C(=O)OCC)c1=O
UACC-257 melanoma
  TGI: > 100 µM
OVCAR-4 ovarian
  TGI: > 100 µM
MCF7 breast
  TGI: > 100 µM
SK-OV-3 ovarian
  TGI: > 100 µM
ACHN renal
  TGI: > 100 µM
SW-620 colon
  TGI: > 100 µM
HS 578T breast
  TGI: 50 µM
SF-268 CNS
  TGI: 48.4 µM
CCRF-CEM leukemia
  TGI: > 100 µM
UO-31 renal
  TGI: > 100 µM
M14 melanoma
  TGI: > 100 µM
SK-MEL-2 melanoma
  TGI: > 100 µM
HCT-15 colon
  TGI: > 100 µM
IGROV1 ovarian
  TGI: > 100 µM
OVCAR-3 ovarian
  TGI: > 100 µM
KM12 colon
  TGI: > 100 µM
BT-549 breast
  TGI: > 100 µM
SNB-19 CNS
  TGI: 38.2 µM
DU-145 prostate
  TGI: > 100 µM
SNB-75 CNS
  TGI: 83 µM
U251 CNS
  TGI: 36.8 µM
MDA-MB-231 breast
  TGI: 41.1 µM
SF-295 CNS
  TGI: > 100 µM
NCI/ADR-RES ovarian
  TGI: > 100 µM
RXF 393 renal
  TGI: 86.2 µM
MDA-MB-435
  TGI: > 100 µM
HCC-2998 colon
  TGI: > 100 µM
RPMI-8226 leukemia
  TGI: 46.4 µM
SR leukemia
  TGI: > 100 µM
A498 renal
  TGI: > 100 µM
MALME-3M melanoma
  TGI: 53.2 µM
EKVX NSCLC
  TGI: > 100 µM
SN12C renal
  TGI: > 100 µM
HOP-62 NSCLC
  TGI: 69.8 µM
SK-MEL-5 melanoma
  TGI: > 100 µM
NCI-H226 lung
  TGI: 47.7 µM
K-562 leukemia
  TGI: > 100 µM
NCI-H23 lung
  TGI: 90.4 µM
CAKI-1 renal
  TGI: > 100 µM
OVCAR-8 ovarian
  TGI: > 100 µM
MOLT-4 leukemia
  TGI: > 100 µM
COLO 205 colon
  TGI: > 100 µM
MDA-N
  TGI: > 100 µM
A549 NSCLC
  TGI: > 100 µM
786-0 renal
  TGI: 30.3 µM
HT29 colon
  TGI: > 100 µM
PC-3 prostate
  TGI: > 100 µM
UACC-62 melanoma
  TGI: 35.1 µM
HCT-116 colon
  TGI: > 100 µM
OVCAR-5 ovarian
  TGI: > 100 µM
NCI-H460 lung
  TGI: 44.3 µM
T-47D breast
  TGI: > 100 µM

## C[C@@H](c1ccccc1)N1CN(C(=O)OCc2ccccc2)C(CO)C1=O (some centres undefined)
UACC-257 melanoma
  TGI: > 100 µM
NCI-H522 lung
  TGI: > 100 µM
OVCAR-4 ovarian
  TGI: > 100 µM
MCF7 breast
  TGI: > 100 µM
SK-OV-3 ovarian
  TGI: > 100 µM
ACHN renal
  TGI: > 100 µM
SW-620 colon
  TGI: > 100 µM
HS 578T breast
  TGI: > 100 µM
SF-268 CNS
  TGI: > 100 µM
CCRF-CEM leukemia
  TGI: > 100 µM
HL-60(TB) leukemia
  TGI: > 100 µM
M14 melanoma
  TGI: > 100 µM
SK-MEL-2 melanoma
  TGI: > 100 µM
HCT-15 colon
  TGI: > 100 µM
IGROV1 ovarian
  TGI: > 100 µM
LOX IMVI melanoma
  TGI: > 100 µM
OVCAR-3 ovarian
  TGI: > 100 µM
KM12 colon
  TGI: > 100 µM
BT-549 breast
  TGI: > 100 µM
SNB-19 CNS
  TGI: > 100 µM
DU-145 prostate
  TGI: > 100 µM
SNB-75 CNS
  TGI: > 100 µM
U251 CNS
  TGI: > 100 µM
MDA-MB-231 breast
  TGI: > 100 µM
TK-10 renal
  TGI: > 100 µM
SF-295 CNS
  TGI: > 100 µM
NCI/ADR-RES ovarian
  TGI: > 100 µM
RXF 393 renal
  TGI: > 100 µM
MDA-MB-435
  TGI: > 100 µM
HCC-2998 colon
  TGI: > 100 µM
RPMI-8226 leukemia
  TGI: > 100 µM
SR leukemia
  TGI: > 100 µM
SF-539 CNS
  TGI: > 100 µM
MALME-3M melanoma
  TGI: > 100 µM
SK-MEL-28 melanoma
  TGI: > 100 µM
EKVX NSCLC
  TGI: > 100 µM
SN12C renal
  TGI: > 100 µM
HOP-62 NSCLC
  TGI: > 100 µM
SK-MEL-5 melanoma
  TGI: > 100 µM
NCI-H226 lung
  TGI: > 100 µM
K-562 leukemia
  TGI: > 100 µM
NCI-H23 lung
  TGI: > 100 µM
CAKI-1 renal
  TGI: > 100 µM
OVCAR-8 ovarian
  TGI: > 100 µM
MOLT-4 leukemia
  TGI: > 100 µM
COLO 205 colon
  TGI: > 100 µM
MDA-N
  TGI: > 100 µM
A549 NSCLC
  TGI: > 100 µM
786-0 renal
  TGI: > 100 µM
HT29 colon
  TGI: > 100 µM
PC-3 prostate
  TGI: > 100 µM
UACC-62 melanoma
  TGI: > 100 µM
HCT-116 colon
  TGI: > 100 µM
OVCAR-5 ovarian
  TGI: > 100 µM
NCI-H460 lung
  TGI: > 100 µM
T-47D breast
  TGI: > 100 µM

## CCC1(CC)C(=O)N(C(=O)c2ccc(C)cc2)N(C(=O)c2ccc(C)cc2)C1=O
UACC-257 melanoma
  TGI: > 75 µM
NCI-H522 lung
  TGI: 51.6 µM
OVCAR-4 ovarian
  TGI: > 75 µM
MCF7 breast
  TGI: > 75 µM
SK-OV-3 ovarian
  TGI: > 75 µM
ACHN renal
  TGI: > 75 µM
SW-620 colon
  TGI: > 75 µM
HS 578T breast
  TGI: > 75 µM
SF-268 CNS
  TGI: > 75 µM
CCRF-CEM leukemia
  TGI: > 75 µM
UO-31 renal
  TGI: > 75 µM
HL-60(TB) leukemia
  TGI: > 75 µM
M14 melanoma
  TGI: > 75 µM
SK-MEL-2 melanoma
  TGI: > 75 µM
HCT-15 colon
  TGI: > 75 µM
IGROV1 ovarian
  TGI: > 75 µM
LOX IMVI melanoma
  TGI: > 75 µM
OVCAR-3 ovarian
  TGI: 46.4 µM
KM12 colon
  TGI: > 75 µM
BT-549 breast
  TGI: > 75 µM
SNB-19 CNS
  TGI: > 75 µM
DU-145 prostate
  TGI: > 75 µM
SNB-75 CNS
  TGI: > 75 µM
U251 CNS
  TGI: > 75 µM
MDA-MB-231 breast
  TGI: > 75 µM
TK-10 renal
  TGI: > 75 µM
SF-295 CNS
  TGI: > 75 µM
NCI/ADR-RES ovarian
  TGI: > 75 µM
RXF 393 renal
  TGI: > 75 µM
MDA-MB-435
  TGI: > 75 µM
HCC-2998 colon
  TGI: > 75 µM
RPMI-8226 leukemia
  TGI: > 75 µM
SR leukemia
  TGI: 68.8 µM
MALME-3M melanoma
  TGI: 62.7 µM
SK-MEL-28 melanoma
  TGI: > 75 µM
EKVX NSCLC
  TGI: > 75 µM
SN12C renal
  TGI: > 75 µM
HOP-62 NSCLC
  TGI: > 75 µM
SK-MEL-5 melanoma
  TGI: > 75 µM
NCI-H226 lung
  TGI: > 75 µM
K-562 leukemia
  TGI: > 75 µM
NCI-H23 lung
  TGI: > 75 µM
CAKI-1 renal
  TGI: > 75 µM
OVCAR-8 ovarian
  TGI: > 75 µM
MOLT-4 leukemia
  TGI: 58.5 µM
COLO 205 colon
  TGI: > 75 µM
MDA-N
  TGI: > 75 µM
A549 NSCLC
  TGI: > 75 µM
786-0 renal
  TGI: > 75 µM
HT29 colon
  TGI: > 75 µM
PC-3 prostate
  TGI: > 75 µM
UACC-62 melanoma
  TGI: > 75 µM
HCT-116 colon
  TGI: > 75 µM
OVCAR-5 ovarian
  TGI: > 75 µM
NCI-H460 lung
  TGI: > 75 µM
T-47D breast
  TGI: > 75 µM
